Results taken from article PMC9609824 (Molecules, 2022).
Read-outs that look alike come from different tables or passages of the source.

Experiments:
[1] = system: CYP2C9 and CYP2C19; conditions: metabolized by CYP2C9 and CYP2C19; cited from earlier work
[2] = freeze–thaw stability (−80 °C, thawed at room temperature three times), High QC 1250
[3] = freeze–thaw stability (−80 °C, thawed at room temperature three times), Low QC 75
[4] = short-term stability T0 (room temperature, immediately after preparation), High QC 1250
[5] = short-term stability T0 (room temperature, immediately after preparation), Low QC 75
[6] = short-term stability T4 (freezer −80 °C, 4 h), High QC 1250
[7] = short-term stability T4 (freezer −80 °C, 4 h), Low QC 75
[8] = short-term stability T24 (freezer −80 °C, 24 h), High QC 1250
[9] = short-term stability T24 (freezer −80 °C, 24 h), Low QC 75

In the case of `Cc1cnc(C(=O)NCCc2ccc(S(=O)(=O)NC(=O)N[C@H]3CCC[C@@H](O)C3)cc2)cn1` (relative stereo) [3-cis-hydroxyglipizide], the “Share of glipizide metabolized to the inactive metabolite” value [1] is listed as 15%.
For `Cc1cnc(C(=O)NCCc2ccc(S(=O)(=O)NC(=O)N[C@H]3CC[C@H](O)CC3)cc2)cn1` [4-trans-hydroxyglipizide], the “Share of glipizide metabolized to the inactive metabolite” value [1] is listed as 71%.
With `Cc1cnc(C(=O)NCCc2ccc(S(=O)(=O)NC(=O)NC3CCCCC3)cc2)cn1` [GLZ, glipizide] the “Accuracy (% Error)” value (autosampler 24 h, High QC 1250) was −1.32%, the “Mean ± SD Measurable Conc.” value (autosampler 24 h, High QC 1250) was 1233.47 ± 71.06 ng/mL and the “Accuracy (% Error)” value (autosampler 24 h, Low QC 75) was 1.83%. The “Mean ± SD Measurable Conc.” value (autosampler 24 h, Low QC 75) was 76.37 ± 2.27 ng/mL, the “Accuracy (% Error)” value [2] was −1.59% and the “Mean ± SD Measurable Conc.” value [2] was 1230.17 ± 112.55 ng/mL. For the same compound, the “Accuracy (% Error)” value [3] was 4.86%, the “Mean ± SD Measurable Conc.” value [3] was 78.65 ± 4.84 ng/mL and the “Accuracy (% Error)” value [4] was −0.82%. For the same compound, the “Mean ± SD Measurable Conc.” value [4] was 1239.79 ± 68.22 ng/mL, the “Accuracy (% Error)” value [5] was 8.13% and the “Mean ± SD Measurable Conc.” value [5] was 81.10 ± 2.06 ng/mL. For the same compound, the “Accuracy (% Error)” value [6] was 2.82%, the “Mean ± SD Measurable Conc.” value [6] was 1285.25 ± 10.84 ng/mL and the “Accuracy (% Error)” value [7] was −6.68%. For the same compound, the “Mean ± SD Measurable Conc.” value [7] was 69.99 ± 1.61 ng/mL, the “Accuracy (% Error)” value [8] was 4.93% and the “Mean ± SD Measurable Conc.” value [8] was 1311.63 ± 30.52 ng/mL. For the same compound, the “Accuracy (% Error)” value [9] was −6.27% and the “Mean ± SD Measurable Conc.” value [9] was 70.30 ± 2.90 ng/mL.
